In US6417177B1, “Chloroquine derivatives for the treatment of Parkinson's disease” (Alpha Research Group, LLC, priority 1999, dated 2002):

What was measured:
Parkinson's Disease = conditions: cited from earlier work
diamine oxidase = biological target: T1, diamine oxidase (Homo sapiens, UniProt P19801); experiment: in vitro comparison of chloroquine phosphate enantiomers for inhibition of diamine oxidase; type: biochemical; conditions: compared between enantiomers of chloroquine phosphate
T1 sequence (P19801 20-751): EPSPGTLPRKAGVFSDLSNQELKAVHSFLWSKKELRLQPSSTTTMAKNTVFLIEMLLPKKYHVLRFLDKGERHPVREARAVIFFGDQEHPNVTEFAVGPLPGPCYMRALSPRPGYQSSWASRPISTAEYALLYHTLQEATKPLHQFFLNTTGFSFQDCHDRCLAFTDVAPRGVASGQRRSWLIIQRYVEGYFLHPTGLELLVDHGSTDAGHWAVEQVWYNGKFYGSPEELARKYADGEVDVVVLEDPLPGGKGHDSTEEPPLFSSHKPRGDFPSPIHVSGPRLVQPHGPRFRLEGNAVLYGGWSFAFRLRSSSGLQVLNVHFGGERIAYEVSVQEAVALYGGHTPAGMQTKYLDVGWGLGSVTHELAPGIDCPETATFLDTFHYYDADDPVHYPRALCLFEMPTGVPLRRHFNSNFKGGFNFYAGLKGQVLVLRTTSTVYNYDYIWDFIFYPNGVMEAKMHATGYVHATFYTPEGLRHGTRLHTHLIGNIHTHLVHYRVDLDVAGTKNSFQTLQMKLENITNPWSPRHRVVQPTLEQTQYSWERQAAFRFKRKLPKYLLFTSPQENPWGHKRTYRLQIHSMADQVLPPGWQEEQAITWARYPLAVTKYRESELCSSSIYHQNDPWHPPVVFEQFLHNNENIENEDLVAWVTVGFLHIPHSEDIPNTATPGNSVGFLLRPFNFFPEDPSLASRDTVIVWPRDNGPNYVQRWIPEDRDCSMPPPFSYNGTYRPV
Experimental: (§1) Enantiomers of chloroquine phosphate were isolated according to the procedure of Stalcup, A. M. et al. (1996), Analytical Chemistry 68:2248-50. Comparisons of these enantiomers with respect to ability to inhibit diamine oxidase and bind to neuromelanin are performed in vitro.

[1] = in vitro comparison of chloroquine phosphate enantiomers for binding to neuromelanin; conditions: compared between enantiomers of chloroquine phosphate
Experimental: as §1

| SMILES | delay of the need to commence L-DOPA treatment (Parkinson's Disease; American researchers) | increase in patient mortality (Parkinson's Disease; co-administered with L-DOPA, compared to the group treated with L-DOPA only) [%] | neural protection (Parkinson's Disease; two-year patient follow-up examinations) | ability to inhibit diamine oxidase (diamine oxidase) | ability to bind neuromelanin [1] |
| --- | --- | --- | --- | --- | --- |
| C#CCN(C)[C@H](C)Cc1ccccc1 [Deprenyl] | up to nine months | 60 | no neural protection was found | – | – |
| CCN(CC)CCCC(C)Nc1ccnc2cc(Cl)ccc12 (single isomer, unassigned) [active enantiomer] | – | – | – | significantly enhanced ability | significantly enhanced ability |
